The values below come from ChEMBL document CHEMBL1201862, “PubChem BioAssay data set” (2004).

Values joined by “and” are separate entries in the source; they are usually repeats but may differ in a detail not shown here. Identical values can stand only once. Active and inactive are the calls of the source.

For assay [1], the target named is T1, G-protein coupled receptor 35 (Homo sapiens, UniProt Q9HC97). Put plainly: SAR analysis of Agonists of the GPR35 Receptor using an Image-Based Assay - Set 4. [Related pubchem assays (depositor defined):AID2013, AID2026]. The format is functional.
T1 sequence (Q9HC97 whole entry): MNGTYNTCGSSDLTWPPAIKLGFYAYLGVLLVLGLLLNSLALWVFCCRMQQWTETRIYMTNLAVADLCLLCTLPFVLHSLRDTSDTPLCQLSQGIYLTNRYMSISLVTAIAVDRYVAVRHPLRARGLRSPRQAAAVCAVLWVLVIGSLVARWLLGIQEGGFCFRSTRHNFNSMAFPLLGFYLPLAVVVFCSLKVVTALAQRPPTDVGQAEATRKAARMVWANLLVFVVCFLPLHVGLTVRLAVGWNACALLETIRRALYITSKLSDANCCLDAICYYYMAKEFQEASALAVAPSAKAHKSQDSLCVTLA
Assay [2] has as its target T2, Cannabinoid receptor 1 (Homo sapiens, UniProt P21554). Put plainly: SAR analysis of agonists of the Cannabinoid Receptor 1 using an Image-Based Assay - Set 4. [Related pubchem assays (depositor defined):AID2013, AID2026]. It is filed as functional.
Assay [3] has as its target T1, G-protein coupled receptor 35. The assay is described as follows: SAR analysis of Antagonists of the GPR35 Receptor using an Image-Based Assay - Set 6. [Related pubchem assays (depositor defined):AID2013, AID2026]. The format is functional.
The target of assay [4] is T2, Cannabinoid receptor 1. Put plainly: SAR analysis of antagonists of the Cannabinoid Receptor 1 using an Image-Based Assay - Set 4. [Related pubchem assays (depositor defined):AID2013, AID2026]. It is filed as functional.
In assay [5] the target is T3, G-protein coupled receptor 55 (Homo sapiens, UniProt Q9Y2T6). The assay is described as follows: SAR Analysis of Selective Antagonists of GPR55 using an Image-Based Assay - Set 4. [Related pubchem assays (depositor defined):AID2013, AID2026]. The format is functional.
T3 sequence (Q9Y2T6 whole entry): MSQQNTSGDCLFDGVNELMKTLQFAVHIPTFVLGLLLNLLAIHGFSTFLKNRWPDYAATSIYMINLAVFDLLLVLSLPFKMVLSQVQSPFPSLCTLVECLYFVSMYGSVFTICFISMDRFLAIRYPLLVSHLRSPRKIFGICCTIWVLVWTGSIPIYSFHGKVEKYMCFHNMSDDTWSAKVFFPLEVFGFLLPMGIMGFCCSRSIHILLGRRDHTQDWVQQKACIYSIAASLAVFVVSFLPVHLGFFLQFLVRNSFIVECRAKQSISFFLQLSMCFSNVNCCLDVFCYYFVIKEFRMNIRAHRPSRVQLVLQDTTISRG
Assay [6] deals with T4, Cannabinoid receptor 2 (Homo sapiens, UniProt P34972). Put plainly: SAR analysis of antagonists of the Cannabinoid Receptor 2 using an Image-Based Assay - Set 3. [Related pubchem assays (depositor defined):AID2013, AID2026]. The format is functional.
T4 sequence (P34972 whole entry): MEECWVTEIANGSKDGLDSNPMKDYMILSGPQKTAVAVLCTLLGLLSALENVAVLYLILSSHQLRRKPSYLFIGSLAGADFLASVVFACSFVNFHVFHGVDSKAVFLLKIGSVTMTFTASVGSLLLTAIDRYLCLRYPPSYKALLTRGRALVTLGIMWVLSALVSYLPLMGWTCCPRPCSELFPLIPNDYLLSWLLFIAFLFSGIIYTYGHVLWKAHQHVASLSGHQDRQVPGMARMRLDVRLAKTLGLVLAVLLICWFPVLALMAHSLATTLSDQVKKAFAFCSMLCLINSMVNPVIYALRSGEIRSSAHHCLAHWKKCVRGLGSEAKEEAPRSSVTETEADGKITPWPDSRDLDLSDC
Assay [7] deals with T4, Cannabinoid receptor 2. The assay is described as follows: SAR analysis of agonists of the Cannabinoid Receptor 2 using an Image-Based Assay - Set 3. [Related pubchem assays (depositor defined):AID2013, AID2026]. It is filed as functional.
For assay [8], the target named is T3, G-protein coupled receptor 55. Put plainly: GPR55 antagonists blocking LPI-driven arrestin recruitment, primary screen, imaging, U2OS, beta-arrestin-GFP, LPI agonist (AID 2013).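 Also: antagonist potency measured as reduced agonist-driven arrestin aggregation.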 It is filed as functional.
In assay [9] the target is T2, Cannabinoid receptor 1. Put plainly: SAR analysis of antagonists of the Cannabinoid Receptor 1 using an Image-Based Assay - Set 2. [Related pubchem assays (depositor defined):AID2013, AID2026]. It is filed as functional.
The target of assay [10] is T1, G-protein coupled receptor 35. Put plainly: SAR analysis of Agonists of the GPR35 Receptor using an Image-Based Assay - Set 2. [Related pubchem assays (depositor defined):AID2013, AID2026]. It is filed as functional.
Assay [11] has as its target T4, Cannabinoid receptor 2. Put plainly: SAR analysis of antagonists of the Cannabinoid Receptor 2 using an Image-Based Assay. [Related pubchem assays (depositor defined):AID2013, AID2026]. The format is functional.
Assay [12] deals with T2, Cannabinoid receptor 1. The assay is described as follows: SAR analysis of agonists of the Cannabinoid Receptor 1 using an Image-Based Assay - Set 2. [Related pubchem assays (depositor defined):AID2013, AID2026]. It is filed as functional.
For assay [13], the target named is T1, G-protein coupled receptor 35. Put plainly: SAR analysis of Antagonists of the GPR35 Receptor using an Image-Based Assay - Set 3. [Related pubchem assays (depositor defined):AID2013, AID2026]. It is filed as functional.
The target in assay [14] is T3, G-protein coupled receptor 55. Put plainly: GPR55 antagonist potency of analogs, SAR follow-up, imaging, U2OS, beta-arrestin-GFP, LPI agonist, set 2 (AID 2820). The format is functional.
In assay [15] the target is T4, Cannabinoid receptor 2. The assay is described as follows: SAR analysis of agonists of the Cannabinoid Receptor 2 using an Image-Based Assay. [Related pubchem assays (depositor defined):AID2013, AID2026]. The format is functional.
Assay [16] concerns the target T5, X-box-binding protein 1 (Homo sapiens, UniProt P17861).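 Also: confirmatory dose-response counter-screen serving a CHOP assay.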
T5 sequence (P17861 whole entry): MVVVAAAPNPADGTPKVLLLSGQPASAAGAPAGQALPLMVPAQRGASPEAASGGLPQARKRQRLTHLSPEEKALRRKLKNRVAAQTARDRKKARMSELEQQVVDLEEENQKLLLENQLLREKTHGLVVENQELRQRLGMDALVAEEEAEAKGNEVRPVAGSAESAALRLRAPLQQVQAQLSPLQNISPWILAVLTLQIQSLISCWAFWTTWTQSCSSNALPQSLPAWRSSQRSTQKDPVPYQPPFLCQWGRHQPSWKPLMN
It is filed as functional, Cricetulus griseus.

The nature of assay [17]: inhibitors of HIV Env-driven cell fusion, dose response, cherry-pick (AID 652057). The format is functional, cell-based.
A short description of assay [18]: CEM21 lymphoblast cell cytotoxicity, dose response, cytotoxicity control for viral fusion inhibitor project, CellTiter-Glo luminescence, cherry-picked (AID 652042).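 Also: potency for signal decrease meaning cytotoxicity.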 The format is functional, cell-based. (In general: In ATP-based viability assays light output follows the ATP content of the culture.)
The nature of assay [19]: ZM109 Env clade C HIV-1 fusion inhibitors, dose response, HeLa effector, CEM target cells, luciferase, cherry-pick (AID 652058). The format is functional, cell-based.
Assay [20] is described as follows: off-target signal loss in HeLa-CEM21 co-culture – HeLa F-luc CTL cells, cherry-picked, counter-screen for HIV-1 Env fusion inhibitor project, dose response (AID 652040).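 Also: potency for signal decrease marking cytotoxic or nonspecific inhibition.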 It is filed as functional, cell-based.
Assay [21] is described as follows: inhibitors of clade B AD8 Env fusion, dose response, cell-based, cherry-pick (AID 652062).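 Also: luciferase signal from cell-cell fusion driven by HIV-1 clade B AD8 Env; potency is for inhibitors of fusion seen as a drop in luminescence.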 It is filed as functional.
Assay [22] addresses Large T antigen (Simian virus 40, UniProt P03070). The format is functional, Betapolyomavirus macacae.
Assay [23] concerns the target Induced myeloid leukemia cell differentiation protein Mcl-1 (Homo sapiens, UniProt Q07820). The format is functional.
The target in assay [24] is Tyrosine-protein phosphatase non-receptor type 12 (Homo sapiens, UniProt Q05209). The assay is described as follows: SAR Selectivity Analysis of small molecule inhibitors of PEST using pCAP in a fluorescence assay. [Related pubchem assays (depositor defined):AID1779, AID1784, AID2135]. The format is functional.
Chain of Tyrosine-protein phosphatase non-receptor type 12 (Q05209 whole entry): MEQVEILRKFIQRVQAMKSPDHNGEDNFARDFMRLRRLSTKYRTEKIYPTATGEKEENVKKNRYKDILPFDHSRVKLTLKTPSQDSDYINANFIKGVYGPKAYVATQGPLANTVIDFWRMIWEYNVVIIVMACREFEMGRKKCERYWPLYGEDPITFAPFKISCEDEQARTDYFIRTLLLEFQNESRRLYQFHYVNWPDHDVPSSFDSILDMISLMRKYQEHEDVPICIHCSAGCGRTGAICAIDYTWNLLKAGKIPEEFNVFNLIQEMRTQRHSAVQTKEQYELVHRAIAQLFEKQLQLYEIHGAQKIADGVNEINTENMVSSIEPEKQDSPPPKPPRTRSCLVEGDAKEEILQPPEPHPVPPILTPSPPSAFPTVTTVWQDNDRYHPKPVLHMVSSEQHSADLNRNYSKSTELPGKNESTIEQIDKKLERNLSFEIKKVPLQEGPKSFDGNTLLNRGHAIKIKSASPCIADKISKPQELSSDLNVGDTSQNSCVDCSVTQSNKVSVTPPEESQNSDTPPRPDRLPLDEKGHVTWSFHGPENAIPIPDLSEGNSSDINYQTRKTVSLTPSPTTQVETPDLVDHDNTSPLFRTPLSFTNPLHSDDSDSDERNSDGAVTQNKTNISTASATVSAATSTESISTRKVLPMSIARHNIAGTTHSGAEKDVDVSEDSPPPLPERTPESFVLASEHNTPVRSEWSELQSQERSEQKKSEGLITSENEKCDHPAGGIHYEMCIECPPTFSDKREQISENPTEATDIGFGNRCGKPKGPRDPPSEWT
The target of assay [25] is T6, Tyrosine-protein phosphatase non-receptor type 22 (Homo sapiens, UniProt Q9Y2R2).
T6 sequence (Q9Y2R2 whole entry): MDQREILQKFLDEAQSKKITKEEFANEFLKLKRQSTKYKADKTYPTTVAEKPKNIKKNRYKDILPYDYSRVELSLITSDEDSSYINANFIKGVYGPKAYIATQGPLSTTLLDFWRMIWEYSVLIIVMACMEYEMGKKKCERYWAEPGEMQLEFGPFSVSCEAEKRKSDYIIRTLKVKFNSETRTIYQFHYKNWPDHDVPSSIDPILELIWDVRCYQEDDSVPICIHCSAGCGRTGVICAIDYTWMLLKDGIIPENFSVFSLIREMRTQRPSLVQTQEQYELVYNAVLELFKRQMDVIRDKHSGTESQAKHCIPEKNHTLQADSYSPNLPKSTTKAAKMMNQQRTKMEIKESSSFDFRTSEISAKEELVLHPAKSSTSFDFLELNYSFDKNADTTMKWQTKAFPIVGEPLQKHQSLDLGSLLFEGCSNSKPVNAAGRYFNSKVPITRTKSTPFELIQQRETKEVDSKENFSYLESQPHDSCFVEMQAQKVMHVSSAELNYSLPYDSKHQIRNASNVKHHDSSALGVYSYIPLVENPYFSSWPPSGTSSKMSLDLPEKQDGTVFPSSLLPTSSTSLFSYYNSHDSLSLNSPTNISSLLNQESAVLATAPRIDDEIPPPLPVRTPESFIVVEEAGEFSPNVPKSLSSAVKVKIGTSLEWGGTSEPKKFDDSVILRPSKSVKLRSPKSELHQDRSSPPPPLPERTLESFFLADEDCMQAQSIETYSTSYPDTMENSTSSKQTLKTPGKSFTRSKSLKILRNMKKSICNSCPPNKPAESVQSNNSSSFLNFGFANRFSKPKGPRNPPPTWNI
The assay is described as follows: SAR LYP1 Fluorescent Assay using OMFP substrate for In Vitro dose response studies - Set 3. [Related pubchem assays (depositor defined):AID1779, AID1784, AID2140, AID2686]. It is filed as functional.

In assay [26] the target is T7, Tyrosine-protein phosphatase non-receptor type 7 (Homo sapiens, UniProt P35236).
T7 sequence (P35236 whole entry): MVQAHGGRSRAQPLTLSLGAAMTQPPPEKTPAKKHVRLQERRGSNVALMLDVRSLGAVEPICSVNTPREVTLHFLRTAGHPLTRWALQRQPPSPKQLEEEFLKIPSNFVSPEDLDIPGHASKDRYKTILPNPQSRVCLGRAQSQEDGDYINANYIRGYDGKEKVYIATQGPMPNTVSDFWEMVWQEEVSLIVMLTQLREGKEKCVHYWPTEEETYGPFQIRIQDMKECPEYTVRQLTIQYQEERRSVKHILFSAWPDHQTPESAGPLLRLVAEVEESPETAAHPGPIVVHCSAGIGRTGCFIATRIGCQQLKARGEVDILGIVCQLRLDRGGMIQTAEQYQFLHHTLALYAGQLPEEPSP
The assay is described as follows: HePTP (PTPN7) phosphatase inhibitor potency, SAR follow-up, biochemical, set 2 (AID 449736). The format is functional.

Assay [27] deals with T6, Tyrosine-protein phosphatase non-receptor type 22. The assay is described as follows: LYP (PTPN22) phosphatase inhibitor potency, SAR follow-up, biochemical, pCAP fluorogenic substrate, fluorescence, set 3 (AID 449727). The format is functional.
Assay [28] is described as follows: fluorescence interference artefacts, compound only, dose response, artefact control for cardiac thin filament activator project, biochemical, no RTF in test wells (AID 504697).
Assay [29] addresses Troponin, cardiac muscle (Homo sapiens, UniProt P19429+P45379+P63316). Put plainly: Fluorescence-based biochemical high throughput dose response assay for activators of the calcium sensitivity of cardiac Regulated Thin Filaments (RTF). [Related pubchem assays (depositor defined):AID493008, AID493018, AID504382, AID504383]. It is filed as protein-complex assay.
The target in assay [30] is CAAX prenyl protease 2 (Saccharomyces cerevisiae S288c, UniProt Q03530). The format is biochemical.
Chain of CAAX prenyl protease 2 (Q03530 whole entry): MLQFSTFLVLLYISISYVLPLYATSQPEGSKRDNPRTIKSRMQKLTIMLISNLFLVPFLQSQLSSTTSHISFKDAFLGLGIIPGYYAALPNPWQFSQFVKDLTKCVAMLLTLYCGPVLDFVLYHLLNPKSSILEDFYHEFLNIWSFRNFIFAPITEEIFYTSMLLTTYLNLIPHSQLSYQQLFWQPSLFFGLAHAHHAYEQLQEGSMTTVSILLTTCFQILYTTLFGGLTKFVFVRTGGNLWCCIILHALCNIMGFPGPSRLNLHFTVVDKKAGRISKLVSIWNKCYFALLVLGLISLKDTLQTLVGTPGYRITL
Assay [31] in a line: mammalian cell cytotoxicity, dose response, cytotoxicity control, plate reader, cherry-pick samples (AID 504397). The format is functional, cell-based.

T2 sequence (P21554 whole entry): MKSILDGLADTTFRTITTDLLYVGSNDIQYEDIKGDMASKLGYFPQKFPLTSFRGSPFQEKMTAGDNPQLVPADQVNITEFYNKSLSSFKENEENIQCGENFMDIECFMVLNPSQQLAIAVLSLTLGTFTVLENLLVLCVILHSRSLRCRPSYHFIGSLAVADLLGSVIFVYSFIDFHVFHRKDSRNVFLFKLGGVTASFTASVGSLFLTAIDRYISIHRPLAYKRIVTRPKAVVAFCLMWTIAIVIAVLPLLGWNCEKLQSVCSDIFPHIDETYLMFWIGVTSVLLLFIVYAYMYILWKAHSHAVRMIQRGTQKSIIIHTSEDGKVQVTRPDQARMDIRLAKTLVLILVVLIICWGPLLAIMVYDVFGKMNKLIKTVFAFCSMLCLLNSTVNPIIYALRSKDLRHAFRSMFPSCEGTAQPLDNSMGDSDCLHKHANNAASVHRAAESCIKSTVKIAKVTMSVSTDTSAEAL
Chain of Large T antigen (P03070 whole entry): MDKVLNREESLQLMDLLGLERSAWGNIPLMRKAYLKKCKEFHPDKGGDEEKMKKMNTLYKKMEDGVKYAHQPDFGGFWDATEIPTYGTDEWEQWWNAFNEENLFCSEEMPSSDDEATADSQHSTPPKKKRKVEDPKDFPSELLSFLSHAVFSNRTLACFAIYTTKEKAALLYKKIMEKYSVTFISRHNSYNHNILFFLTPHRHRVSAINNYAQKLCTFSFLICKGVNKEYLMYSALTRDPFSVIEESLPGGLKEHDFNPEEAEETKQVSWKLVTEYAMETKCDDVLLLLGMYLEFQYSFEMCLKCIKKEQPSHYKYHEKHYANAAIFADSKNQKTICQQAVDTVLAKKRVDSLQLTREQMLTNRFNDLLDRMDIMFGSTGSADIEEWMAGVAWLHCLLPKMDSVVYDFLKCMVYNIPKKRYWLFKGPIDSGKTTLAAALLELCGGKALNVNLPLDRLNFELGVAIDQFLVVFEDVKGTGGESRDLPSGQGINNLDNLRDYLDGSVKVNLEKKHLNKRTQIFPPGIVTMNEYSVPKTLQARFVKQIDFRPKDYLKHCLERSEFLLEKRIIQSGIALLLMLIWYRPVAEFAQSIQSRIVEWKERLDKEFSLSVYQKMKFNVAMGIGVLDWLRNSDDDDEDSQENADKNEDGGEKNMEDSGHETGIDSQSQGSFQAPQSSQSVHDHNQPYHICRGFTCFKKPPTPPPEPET
Chain of Induced myeloid leukemia cell differentiation protein Mcl-1 (Q07820 whole entry): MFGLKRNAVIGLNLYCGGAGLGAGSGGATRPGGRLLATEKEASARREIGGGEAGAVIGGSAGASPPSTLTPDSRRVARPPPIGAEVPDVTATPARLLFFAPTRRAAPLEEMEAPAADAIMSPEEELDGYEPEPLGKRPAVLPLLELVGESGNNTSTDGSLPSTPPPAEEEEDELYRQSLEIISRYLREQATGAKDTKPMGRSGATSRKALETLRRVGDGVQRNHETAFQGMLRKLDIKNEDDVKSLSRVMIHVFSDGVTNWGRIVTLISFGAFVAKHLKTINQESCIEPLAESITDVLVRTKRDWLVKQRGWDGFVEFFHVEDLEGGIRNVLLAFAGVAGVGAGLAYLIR

For the molecule `Cc1nc(N2CCN(C(=O)C3CCCCC3)CC2)c2c3c(sc2n1)CCCC3`, the EC50 in assay [1], in assay [2] and in assay [7] was > 32 µM (inactive) each time. The IC50 in assay [3] was > 32 µM (inactive); in assay [4], 3.05 µM (active); in assay [5], 9.24 µM (active); in [6], > 16.8 µM (inactive).

Turning to `CC1=CC(C)(C)N2C(=O)C3(SCC(=O)N3c3ccc(F)cc3)c3cc(C)cc1c32` (stereo unspecified), the half-inhibitory concentration (IC50) is 4.09 µM (active) in assay [8]; 6.41 µM (active) in assay [9]; > 32 µM (inactive) in [11]; > 32 µM (inactive) in [13]; 1.42 µM (active) in [14]. The EC50 in assay [10], in [12] and in assay [15] was > 32 µM (inactive) throughout. For the same molecule, the “Absolute IC50 (XBP1)” value in assay [16] is less than 10 µM. Further, the AC50 in [17] was 23.7 µM (active); in [18], 53.1 µM (active); in assay [19], 1.13 µM (active); in [20], 43.1 µM (active); in [21], 21.8 µM (active).

Regarding `CC(/C=C1\SC(=S)N(CCCC(=O)Nc2ccc(C(=O)O)c(O)c2)C1=O)=C\c1ccccc1`, the half-maximal inhibitory concentration (IC50) in assay [22] was > 100 µM (active); in assay [23], 1.56 µM (active); in assay [24], 14 µM (active) and 9.91 µM (active); in assay [25], 49.1 µM (active) and 44.9 µM (active); in assay [26] it was 739 nM (active) and 703 nM (active); in assay [27], 37.9 µM (active) and 40.9 µM (active).

As for `N#C/C(=C/c1ccc(-c2ccccc2)o1)c1nc(-c2cccs2)cs1`, the results for the EC50 in assay [28] and in [29] were > 7.94 µM (active) and 0.615 µM (active), respectively.

With `Cc1ccsc1/C=N/NC(=O)c1nnn(-c2nonc2N)c1C(C)C`, the results for the half-maximal activity concentration (AC50) in [30] and in assay [31] were 0.87 µM (active) and 67.6 µM (active), respectively.

What is called EC50 is the concentration needed to bring the measured effect to its halfway point. A word on the IC50: it is the point on the concentration scale where inhibition reaches its midpoint. As usually defined, the AC50 is the midpoint of the concentration-response curve, whichever way the signal moves.
